Experimental data taken from article PMC2820511 (Journal of medicinal chemistry, 2010).

Molecular target: MtMetAP1c (Mycobacterium tuberculosis, UniProt P9WK19)
Test: Inhibition of purified MtMetAP1c apoenzyme activated by divalent metals
Assay type: biochemical
Conditions: apoenzyme activated by Co(II), Ni(II), Mn(II) or Fe(II)

MtMetAP1c, sequence (P9WK19 whole entry, looked up): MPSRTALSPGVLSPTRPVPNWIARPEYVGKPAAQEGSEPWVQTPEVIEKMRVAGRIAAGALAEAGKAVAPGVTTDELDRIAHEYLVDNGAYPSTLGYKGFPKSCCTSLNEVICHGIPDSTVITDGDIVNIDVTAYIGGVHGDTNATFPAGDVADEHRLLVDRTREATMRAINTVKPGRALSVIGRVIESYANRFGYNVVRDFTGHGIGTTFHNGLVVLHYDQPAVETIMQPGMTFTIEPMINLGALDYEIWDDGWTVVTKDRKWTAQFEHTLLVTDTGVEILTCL

Row | Compound | metalloform selectivity of inhibition of purified MtMetAP1c
1 | O=C(O)c1ccc(-c2cc(Cl)ccc2Cl)o1 [compound 3] | selective for the Mn(II) form
2 | Cc1ccsc1-c1ccc(O)c(O)c1 [compound 2] | selective for the Fe(II) form
3 | Cc1nc(-c2ccc(O)c(O)c2)cs1 [compound 1] | selective for the Fe(II) form

Tested on: MtMetAP1c-complemented E. coli cells
Test: Inhibition of MtMetAP1c-complemented E. coli cell growth
Conditions: highest concentration (1 mM) tested

Row | Compound | growth inhibition at the highest concentration tested
4 | O=C(O)c1ccc(-c2cc(Cl)ccc2Cl)o1 [compound 3] | no inhibition
5 | Nc1nnc(SCc2ccc(F)cc2)[nH]1 [compound 5] | no inhibition
6 | Cc1ccc(CSc2nnc(N)[nH]2)cc1 [compound 6] | no inhibition
